Measured values: ChEMBL document CHEMBL3608235, “Pyrroloaryls and pyrroloheteroaryls: Inhibitors of the HIV fusion/attachment, reverse transcriptase and integrase” (Bioorg Med Chem, 2015)
Blank lines part the entries; values can stand above or below the compound they belong to.

Assays:
KB = assay: Cytotoxicity against human KB cells; format: cell-based
[1] = tested on: Human immunodeficiency virus; assay: Antiviral activity against HIV by XTT assay; format: functional, organism-based; settings: Human immunodeficiency virus 1
[2] = tested on: Human immunodeficiency virus 1; assay: Antiviral activity against HIV1 by multi-cycle antiviral assay; format: functional, organism-based
[3] = tested on: Human immunodeficiency virus 1; assay: Antiviral activity against HIV1 by single-cycle antiviral assay; format: functional, organism-based
[4] = target: Human immunodeficiency virus type 1 reverse transcriptase (Human immunodeficiency virus 1) (UniProt Q72547); assay: Inhibition of HIV1 reverse transcriptase at 330 uM
[5] = tested on: Human immunodeficiency virus 1; assay: Antiviral activity against HIV1 93BR020 assessed as inhibition of virus mediated cell fusion between CEMx174 5.25M7 cells and PBMC/HIV1 93BR020 cells; format: functional, organism-based; settings: Human immunodeficiency virus 1, 93BR020, CEMx174 5.25M7
[6] = tested on: Human immunodeficiency virus 1; assay: Antiviral activity against HIV1 3B; format: functional, organism-based; settings: Human immunodeficiency virus 1, 3B
[7] = tested on: Human immunodeficiency virus 1; assay: Antiviral activity against HIV1 93TH051 assessed as inhibition of virus mediated cell fusion between CEMx174 5.25M7 cells and PBMC/HIV1 93TH051 cells; format: functional, organism-based; settings: Human immunodeficiency virus 1, 93TH051, CEMx174 5.25M7
[8] = tested on: Human immunodeficiency virus 1; assay: Antiviral activity against HIV1 RF; format: functional, organism-based; settings: Human immunodeficiency virus 1, RF
[9] = Toxicity against human MT2 cells; format: cell-based
[10] = tested on: Human immunodeficiency virus 1; assay: Antiviral activity against HIV1 SF2; format: functional, organism-based; settings: Human immunodeficiency virus 1, SF2
[11] = tested on: Human immunodeficiency virus 1; assay: Antiviral activity against HIV1 BCF02 assessed as inhibition of virus mediated cell fusion between CEMx174 5.25M7 cells and […] cells; format: functional, organism-based; settings: Human immunodeficiency virus 1, BCF02, CEMx174 5.25M7
[12] = tested on: Human immunodeficiency virus 1; assay: Antiviral activity against HIV1 SF162 assessed as inhibition of virus mediated cell fusion between CEMx174 5.25M7 cells and PBMC/HIV1 SF162 cells; format: functional, organism-based; settings: Human immunodeficiency virus 1, SF162, CEMx174 5.25M7
[13] = Toxicity against human U373-MAGI-CXCR4-CEM cells; format: cell-based
[14] = Toxicity against human U87-T4-CXCR4 cells; format: cell-based, U-87MG ATCC
[15] = Toxicity against human CEMx174 5.25M7 cells; format: cell-based
[16] = tested on: Human immunodeficiency virus 1; assay: Antiviral activity against HIV1 3B assessed as inhibition of virus mediated cell fusion between MT2 cells and H9/HIV1 3B cells; format: functional, organism-based; settings: Human immunodeficiency virus 1, 3B
[17] = tested on: Human immunodeficiency virus 1; assay: Antiviral activity against HIV1 92UG029 assessed as inhibition of virus mediated cell fusion between CEMx174 5.25M7 cells and […] cells; format: functional, organism-based; settings: Human immunodeficiency virus 1, 92UG029, CEMx174 5.25M7
[18] = tested on: Human immunodeficiency virus 1; assay: Antiviral activity against HIV1 by XTT assay; format: functional, organism-based
[19] = tested on: Human immunodeficiency virus 2; assay: Antiviral activity against HIV2 by XTT assay; format: functional, organism-based
[20] = tested on: Human immunodeficiency virus; assay: Antiviral activity against HIV by syncytial plaque assay; format: functional, organism-based; settings: Human immunodeficiency virus 1
[21] = tested on: Human immunodeficiency virus 1; assay: Antiviral activity against HIV1 3B infected in human C8166 cells assessed as inhibition of virus replication; format: functional, organism-based; settings: Human immunodeficiency virus 1, 3B
[22] = Selectivity index, ratio of IC50 for human C8166 cells to EC50 for HIV1 3B infected in human C8166 cells; format: toxicity, cell-based; settings: C8166 cells (uninfected and HIV1 3B-infected), read-out: Ratio IC50/EC50
C8166 = assay: Cytotoxicity against human C8166 cells; format: cell-based; settings: Homo sapiens, C8166
[23] = tested on: Human immunodeficiency virus 1; assay: Antiviral activity against CCR5-tropic HIV1 BAL infected in human PM1 cells by monogram phenosense entry assay; format: functional, organism-based; settings: Human immunodeficiency virus 1, BAL
[24] = tested on: Human immunodeficiency virus 1; assay: Antiviral activity against CCR5-tropic HIV1 SF162 infected in human PM1 cells by monogram phenosense entry assay; format: functional, organism-based; settings: Human immunodeficiency virus 1, SF162, PM1
[25] = tested on: Human immunodeficiency virus 1; assay: Antiviral activity against CCR5-tropic HIV1 JRFL infected in human PM1 cells by monogram phenosense entry assay; format: functional, organism-based; settings: Human immunodeficiency virus 1, JRFL
[26] = tested on: Human immunodeficiency virus 1; assay: Antiviral activity against CXCR4-tropic HIV1 LAI infected in human MT2 cells by monogram phenosense entry assay; format: functional, organism-based; settings: Human immunodeficiency virus 1, LAI
[27] = tested on: Human immunodeficiency virus 1; assay: Antiviral activity against CXCR4-tropic HIV1 MN infected in human MT2 cells by monogram phenosense entry assay; format: functional, organism-based; settings: Human immunodeficiency virus 1, MN
[28] = tested on: Human immunodeficiency virus 1; assay: Antiviral activity against CXCR4-tropic HIV1 3B infected in human MT2 cells by monogram phenosense entry assay; format: functional, organism-based; settings: Human immunodeficiency virus 1, 3B
[29] = tested on: Human immunodeficiency virus 1; assay: Antiviral activity against CXCR4-tropic HIV1 NL4-3 infected in human MT2 cells by monogram phenosense entry assay; format: functional, organism-based; settings: Human immunodeficiency virus 1, NL4-3, MT2
[30] = Selectivity index, ratio of IC50 for human CEM-SS cells to EC50 for HIV1 infected in human CEM-SS cells; format: toxicity, cell-based; settings: CEM-SS cells (uninfected and HIV1-infected), read-out: Ratio IC50/EC50
[31] = Selectivity index, ratio of CC50 for mock-infected human MT4 cells to EC50 for HIV1 infected in human MT4 cells; format: toxicity, cell-based; settings: MT4 cells (mock-infected and HIV1-infected), read-out: Ratio CC50/EC50

SMILES: CN1N=C(N)c2cn([C@@H]3O[C@H](CO)[C@@H](O)[C@H]3O)c3nc(-c4ccccc4)nc1c23
- EC50 (KB): > 100 µM
- IC50 [1]: 3 µM

- EC50 [2]: 7.5 µM
- EC50 [3]: 8.2 µM
SMILES: O=C1NC(c2cccnc2)c2c(-c3ccccc3)n[nH]c21 (centres undefined)

SMILES: O=C1c2cnncc2C2(c3ccccc3)NCCN12 (centres undefined)
- inhibition [4]: 36%

- EC50 [5]: 10.1 µM
- EC50 [6]: 2.21 µM
- EC50 [7]: 57.3 µM
- EC50 [8]: 3.58 µM
- EC50 [10]: 4.75 µM
- EC50 [11]: 46.4 µM
- EC50 [12]: 93.1 µM
- EC50 [16]: 29.9 µM
- EC50 [17]: 29 µM
SMILES: O=C(O)c1cc(-n2cccc2)ccc1Cl
- CC50 [9]: > 4000 µM
- CC50 [13]: > 4000 µM
- CC50 [14]: > 4000 µM
- CC50 [15]: > 4000 µM

- IC50 [20]: 0.01 µM
SMILES: CN1N=C(N)c2cn([C@@H]3O[C@H](COP(=O)(O)O)[C@@H](O)[C@H]3O)c3ncnc1c23 [TRICIRIBINE PHOSPHATE]
- IC50 [18]: 0.02 µM
- IC50 [19]: 0.02 µM

- EC50 [21]: 0.033 µM
SMILES: CCC1(c2cccc(OC)c2)Oc2ccccc2-n2cccc2C1=O (centres undefined)
- selectivity ratio [22]: 212
- IC50 (C8166): 7 µM

SMILES: COc1cnc(-n2cnc(C)n2)c2[nH]cc(C(=O)C(=O)N3CCN(C(=O)c4ccccc4)CC3)c12 [TEMSAVIR]
- EC50 [23]: 0.0017 µM
- EC50 [24]: 0.0005 µM
- EC50 [25]: 0.0004 µM
- EC50 [26]: 0.0007 µM
- EC50 [27]: 0.0148 µM
- EC50 [28]: 0.0162 µM
- EC50 [29]: 0.0022 µM

- EC50 [5]: 7.04 µM
- EC50 [6]: 1.04 µM
- EC50 [7]: 7.46 µM
- EC50 [8]: 1.69 µM
- EC50 [10]: 1.86 µM
- EC50 [11]: 3.94 µM
- EC50 [12]: 20.6 µM
- EC50 [16]: 6.74 µM
- EC50 [17]: 10.6 µM
SMILES: Cc1ccc(C)n1-c1ccc(C(=O)O)c(O)c1
- CC50 [9]: 2760 µM
- CC50 [13]: 1860 µM
- CC50 [14]: > 4000 µM
- CC50 [15]: 2490 µM

- EC50 [2]: 1.4 µM
- EC50 [3]: 1.8 µM
SMILES: O=C1NC(c2ccc(O)cc2)c2c(-c3ccccc3)n[nH]c21 (centres undefined)

SMILES: Cc1ccnc2c1NC(=O)c1cccnc1N2C1CC1 [NEVIRAPINE]
- selectivity ratio [22]: > 250
- selectivity ratio [30]: 525
- selectivity ratio [31]: > 800
